# Publication PMC4669759 (Cell Death & Disease, 2015)
# Assays:
# Assay type in all cases: cell-based
# MCL1 mRNA = MCL1 mRNA by reverse transcriptase-PCR in HCC-1806 cells; settings: 8 h
# Description: (§1) Figure 1 MCL-1 levels are elevated in cancer cells after treatment with MCL-1-binding small molecules. (a) H929 multiple myeloma cells were treated for 4 h with 10 μM A-1210477 before immunopreciptating MCL-1. […] A control H929 lysate was run in lane 1, and an immunoprecipitation with a non-specific antibody (Ig) was run in lane 2. The positions of molecular weight markers (specified in kiloDaltons) are indicated on the left. (b) HCC-1806 breast cancer cells were incubated with increasing concentrations of A-1210477 (0.1, 0.5, 1, 5, 10, 15, or 20 μM) or bortezomib (2, 10, or 50 nM) for 8 h before assessing MCL-1 and NOXA levels by immunoblotting. β-Actin was probed as a protein loading control. The lower graph depicts reverse transcriptase-PCR quantification of MCL1 mRNA from HCC-1806 cells treated for 8 h with similar concentrations of A-1210477. (c) HCC-1806 cells were incubated with increasing concentrations (0.1, 0.5, 1, 5, 10, and 20 μM) of A-954248, A-962653, or A-1248767 for 24 h before assessing MCL-1 and BCL-XL levels by immunoblotting. β-Actin was probed as a protein loading control
# BCL-2–BAD complexes = molecular target: T1, BCL-2–BAD complexes (Homo sapiens, UniProt P10415); test: Live cell redistribution assay, eGFP-BCL-2 and mCherry-BAD, T-REx-293 cells; settings: 10 μM, 300 min
# T1 construct: expressed in transfected cells; host or cells: T-REx-293, bicistronic expression module integrated at a single genomic site
# Text: (§2) To further rule out potential artifacts associated with lysate detergents that can influence interactions between BCL-2 family proteins,[47] we employed a recently described real-time imaging method to assess the effects on BCL-2 family complexes in live cells.[48] Briefly, interacting pairs of BCL-2 family proteins are expressed as fluorescent fusion proteins at stoichiometric levels from a bicistronic expression module integrated into a single site of the genome in T-REx-293 cells. […]
# (§3) Figure 3 A-1210477 inhibits MCL-1-BIM complexes in live cells. […] The decrease in amount of mCherry-BH3 protein localized to the mitochondria was quantified as a function of time as described in the Materials and Methods, normalized to DMSO control, and fitted to a single exponential decay. Each data point represents the mean change in intensity calculated from 10 fields of view, with error bars indicating the S.E.M. (b) T-REx-293 cells stably expressing eGFP-MCL-1(3B) and mCherry-BIMS(2A)ΔC were treated with 50 μM ABT-737 or increasing concentrations (1–25 μM) A-1210477 for 100 min. The decrease in amount of mCherry-BIMS(2A)ΔC localized to the mitochondria was quantified as in panel (a). (c) Representative fluorescence microscopic images of T-REx-293 cells stably expressing eGFP-BCL-2 family and interacting mCherry-BH3-only proteins before and after 300 min of treatment with 10 μM A-1210477 or (d) ABT-737. […]
# BCL-XL–BAD complexes = molecular target: T2, BCL-XL–BAD complexes (Homo sapiens, UniProt Q07817); test: Live cell redistribution assay, eGFP-BCL-XL and mCherry-BAD, T-REx-293 cells; settings: 10 μM, 300 min
# T2 construct: expressed in transfected cells; host or cells: T-REx-293, bicistronic expression module integrated at a single genomic site
# Text: as §2, §3
# NOXA = NOXA levels by immunoblotting in HCC-1806 cells; settings: 8 h, up to 20 μM
# Description: as §1
# Cells were scraped into cold PBS, pelleted, and then resuspended in 100–200 μl ice-cold insect cell lysis buffer supplemented with protease inhibitors (BD Biosciences Pharmingen, San Diego, CA, USA). Cells were lysed by sonication, and the debris was cleared in a microcentrifuge. […]
# Bak-/- Bax-/- MEFs = test: Cell viability, Bak-/- Bax-/- murine embryonic fibroblasts; settings: 48 h
# Description: Supplementary Figure 4. […] Murine embryonic fibroblasts (MEFs) lacking Bak and Bax were treated with increasing concentrations of A-1155905, A-1208746, A-1210477, staurosporine or bortezomib for 48 h before assessing cell viability. Data represent the mean of triplicate experiments and error bars indicate the standard error of the mean.
# [1] = tested on: MCL-1(3B)–BIMS(2A)ΔC complexes; test: Live cell redistribution assay, eGFP-MCL-1(3B) and mCherry-BIMS(2A)ΔC, T-REx-293 cells
# Text: To further rule out potential artifacts associated with lysate detergents that can influence interactions between BCL-2 family proteins,[47] we employed a recently described real-time imaging method to assess the effects on BCL-2 family complexes in live cells.[48] Briefly, interacting pairs of BCL-2 family proteins are expressed as fluorescent fusion proteins at stoichiometric levels from a bicistronic expression module integrated into a single site of the genome in T-REx-293 cells. Under basal conditions, both proteins localize primarily to the mitochondria, where the anti-apoptotic proteins (enhanced green fluorescent protein (eGFP)-BCL-2, eGFP-BCL-XL, or eGFP-MCL-1(3B)) sequester their pro-apoptotic counterparts (mCherry-BAD or mCherry-BIMS(2A)ΔC, the latter being a specific binder of MCL-1[48], [49]). Disruption of these complexes can be tracked by measuring the amount of mCherry-labeled BH3-only protein localized specifically to the mitochondria. […]
# as §3
# Experiments were carried out as detailed previously.[48] […] Therefore, the entire cell was identified with a single intensity threshold applied to the eGFP fluorescence, excluding areas identified as mitochondria. […]
# T1 sequence (P10415 whole entry, one chain of several): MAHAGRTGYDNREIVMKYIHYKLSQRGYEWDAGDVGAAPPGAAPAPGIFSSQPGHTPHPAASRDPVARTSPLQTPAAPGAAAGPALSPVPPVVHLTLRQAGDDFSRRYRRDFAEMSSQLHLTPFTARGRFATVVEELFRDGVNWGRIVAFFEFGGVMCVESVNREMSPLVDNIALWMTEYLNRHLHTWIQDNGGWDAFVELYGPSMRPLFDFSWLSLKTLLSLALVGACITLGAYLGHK
# T2 sequence (Q07817 whole entry, one chain of several): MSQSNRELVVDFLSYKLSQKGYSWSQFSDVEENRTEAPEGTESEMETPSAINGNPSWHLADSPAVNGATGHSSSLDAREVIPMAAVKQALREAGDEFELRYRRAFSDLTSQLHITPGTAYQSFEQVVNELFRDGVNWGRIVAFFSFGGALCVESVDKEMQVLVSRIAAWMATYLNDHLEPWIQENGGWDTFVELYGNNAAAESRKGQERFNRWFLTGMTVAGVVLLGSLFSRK
compound,measurement,setting,value
Cc1nn(C)c(COc2ccc(N3CCN(S(=O)(=O)N(C)C)CC3)cc2)c1-c1cccc2c(CCCOc3cccc4ccccc34)c(C(=O)O)n(CCN3CCOCC3)c12 [A-1210477],effect on MCL1 mRNA,MCL1 mRNA,No corresponding increase in MCL1 mRNA
same,redistribution of mCherry-BAD associated with BCL-2,BCL-2–BAD complexes,no effect
same,redistribution of mCherry-BAD associated with BCL-XL,BCL-XL–BAD complexes,no effect
same,effect on NOXA levels,NOXA,no effect
same,killing of Bak-/- Bax-/- MEFs,Bak-/- Bax-/- MEFs,do not Kill
same,redistribution of mCherry-BIMS(2A)ΔC from mitochondria,[1]; T-REx-293 cells expressing MCL-1(3B),induced dose-dependent redistribution of BIMS(2A)ΔC to the cytosol
same,lowest concentration at which BIMS(2A)ΔC redistribution could be observed,"[1]; T-REx-293 cells, 100 min",1 µM
